Laboratory results: patent US8618107B2 (Gilead Connecticut, Inc., priority 2010, dated 2013)
pEC50, pIC50: −log10 of the molar value.

Columns and labels:
[1] = tested on: CD86 surface expression on CD19+/7AAD- mouse splenocytes stimulated with IgM; experiment: CD86 Inhibition Assay; format: cell-based; conditions: Splenocyte; total mouse splenocytes (Balb/c), IgM stimulation 24 hr
Procedure: Following the 24 hr incubation, cells are transferred to conical bottom clear 96-well plates and pelleted by centrifugation at 1200×g×5 min. […] Cells are sorted on a BD FACSCalibur and gated on the CD19^+/7AAD^− population. The levels of CD86 surface expression on the gated population is measured versus test compound concentration.

Btk = Btk (Homo sapiens (Human), UniProt Q06187); experiment: standard biochemical Btk Kinase Assay (Example 901)
Source text: Determination of IC50 values can be accomplished using conventional techniques known in the art. In general, an IC50 can be determined by measuring the activity of a given enzyme in the presence of a range of concentrations of the inhibitor under study. The experimentally obtained values of enzyme activity then are plotted against the inhibitor concentrations used. […] Analogously, other inhibitory concentrations can be defined through appropriate determinations of activity.

[2] = tested on: CD69 on CD20 positive cells in human whole blood stimulated by anti-IgM; experiment: CD69 Whole Blood Assay; format: cell-based; conditions: anti-human IgM stimulation, 20 hours
Procedure: Human blood is obtained from healthy volunteers, with the following restrictions: 1 week drug-free, non-smokers. Blood (approximately 20 mls to test 8 compounds) is collected by venipuncture into Vacutainer® (Becton, Dickinson and Co.) tubes with sodium heparin.
Solutions of Formula I compounds at 10 mM in DMSO are diluted 1:10 in 100% DMSO, then are diluted by three-fold serial dilutions in 100% DMSO for a ten point dose-response curve. The compounds are further diluted 1:10 in PBS and then an aliquot of 5.5 μl of each compound is added in duplicate to a 2 ml 96-well plate; 5.5 μl of 10% DMSO in PBS is added as control and no-stimulus wells. Human whole blood—HWB (100 μl) is added to each well. After mixing the plates are incubated at 37° C., 5% CO2, 100% humidity for 30 minutes. Goat F(ab′)2 anti-human IgM (10 μl of a 500 μg/ml solution, 50 μg/ml final) is added to each well (except the no-stimulus wells) with mixing and the plates are incubated for an additional 20 hours. At the end of the 20 hour incubation, samples are incubated with fluorescent labeled antibodies for 30 minutes, at 37° C., 5% CO2, 100% humidity. Include induced control, unstained and single stains for compensation adjustments and initial voltage settings. Samples are then lysed with PharM Lyse™ (BD Biosciences Pharmingen) according to the manufacturer's instructions. Samples are then transferred to a 96 well plate suitable to be run on the BD Biosciences HTS 96 well system on the LSRII machine. Data acquired and Mean Fluorescence Intensity values were obtained using BD Biosciences DIVA Software. Results are initially analyzed by FACS analysis software (Flow Jo). […] The IC50 values are calculated by Prism version 5, using a nonlinear regression curve fit.

Sequence of Btk (Q06187 whole entry): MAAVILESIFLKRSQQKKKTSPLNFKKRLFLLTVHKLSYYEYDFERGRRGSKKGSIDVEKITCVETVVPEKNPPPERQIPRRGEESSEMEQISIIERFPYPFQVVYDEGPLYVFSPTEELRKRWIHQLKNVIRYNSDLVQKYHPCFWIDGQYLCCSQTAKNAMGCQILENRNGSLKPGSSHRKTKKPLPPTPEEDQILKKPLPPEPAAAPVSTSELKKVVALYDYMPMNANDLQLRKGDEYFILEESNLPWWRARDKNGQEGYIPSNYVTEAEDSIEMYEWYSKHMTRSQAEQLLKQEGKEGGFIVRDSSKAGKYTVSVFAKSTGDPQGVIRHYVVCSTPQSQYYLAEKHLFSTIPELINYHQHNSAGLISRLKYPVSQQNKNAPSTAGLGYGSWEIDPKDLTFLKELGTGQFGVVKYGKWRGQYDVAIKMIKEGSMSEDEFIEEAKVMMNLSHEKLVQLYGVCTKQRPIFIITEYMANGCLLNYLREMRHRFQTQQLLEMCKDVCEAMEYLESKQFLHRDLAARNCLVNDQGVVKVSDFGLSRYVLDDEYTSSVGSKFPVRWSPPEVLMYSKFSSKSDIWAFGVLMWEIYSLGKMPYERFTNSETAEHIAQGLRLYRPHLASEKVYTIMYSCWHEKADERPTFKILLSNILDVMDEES

Row | SMILES | pEC50 [1] | melting point | other results
1 | CN1CCN(c2ccc(Nc3cc(-c4cccc(N5CCn6c(cc7c6CCCC7)C5=O)c4CO)cn(C)c3=O)nc2)CC1 [Example 113, 2-(2-(hydroxymethyl)-3-(1-methyl-5-(5-(4-methylpiperazin-1-yl)pyridine-2-ylamino)-6-oxo-1,6-dihydropyridin-3-yl)phenyl)-3,4,6,7,8,9-hexahydropyrazino[1,2-a]indol-1(2H)-one] | 7.68 | – | pIC50 (Btk; Table 1): 8.30
2 | CN1CCCC1c1ccc(Nc2cc(-c3cc(F)cc(N4CCc5c(sc6c5CCCC6)C4=O)c3CO)cn(C)c2=O)nc1 (centres unmarked) | – | 164 to 166 °C | –
3 | Cn1cc(-c2cccc(N3CCc4c(sc5c4CC(C)(C)C5)C3=O)c2CO)nc(Nc2cccnc2)c1=O [Example 193, 5-(2-(Hydroxymethyl)-3-(6,6-dimethyl-3,4,6,7-tetrahydro-5H-cyclopenta[4,5]thieno[2,3-c]pyridine-1(2H)-yl))-1-methyl-3-(pyridin-3-ylamino)pyrazin-2(1H)-one] | – | 135 to 136 °C | –
4 | Cn1cc(-c2cccc(N3CCc4c(cc5n4CCCC5)C3=O)c2CO)cc(Nc2ccc(C3CNC3)cn2)c1=O [Example 227, 2-(3-(5-(5-(Azetidin-3-yl)pyridin-2-ylamino)-1-methyl-6-oxo-1,6-dihydropyridin-3-yl)-2-(hydroxymethyl)phenyl)-3,4,6,7,8,9-hexahydropyrido[3,4-b]indolizin-1(2H)-one] | – | 227 to 229 °C | –
5 | CN1CCN(c2ccc(Nc3cc(-c4cc(F)cc(N5CCc6c(sc7c6CC(C)(C)C7)C5=O)c4CO)cn(C)c3=O)nc2)CC1 [Example 204] | – | 143 to 145 °C | –
6 | Cn1cc(-c2cccc(-n3ccc4c5c(sc4c3=O)CC(C)(C)C5)c2CO)cc(Nc2ccncn2)c1=O [Example 203, 5-(3-(6,6-Dimethyl-5,7-dihydro-5H-cyclopenta[4,5]thieno[2,3-c]pyridine-1(2H)-yl)-2-(hydroxymethyl)phenyl)-1-methyl-3-(pyrimidin-4-ylamino)pyridin-2(1H)-one] | – | 170 to 171 °C | –
7 | CN1CCC(c2ccc(Nc3cc(-c4cccc(N5CCc6c(sc7c6CC(C)(C)C7)C5=O)c4CO)cn(C)c3=O)nc2)CC1 [Example 325, 10-[2-(Hydroxymethyl)-3-(1-methyl-5-{[5-(1-methylpiperidin-4-yl)pyridine-2-yl]amino}-6-oxopyridin-3-yl)phenyl]-4,4-dimethyl-7-thia-10-azatricyclo[6.4.0.0^2,6]dodeca-1(8),2(6)-dien-9-one] | – | – | pIC50 [2]: 7.62
8 | Cn1cc(-c2cccc(N3CCc4c(sc5c4CC(C)(C)C5)C3=O)c2CO)cc(Nc2cc3n(n2)CCOC3)c1=O [Example 183] | – | 167 to 168 °C | –
9 | CN1CCN(c2ccc(Nc3cc(-c4cc(F)cc(N5CCn6c(cc7c6CCCC7)C5=O)c4CO)cn(C)c3=O)nc2)C(=O)C1 [Example 345, 2-(5-fluoro-2-(hydroxymethyl)-3-(1-methyl-5-(5-(4-methyl-2-oxopiperazin-1-yl)pyridin-2-ylamino)-6-oxo-1,6-dihydropyridin-3-yl)phenyl)-3,4,6,7,8,9-hexahydropyrazino[1,2-a]indol-1(2H)-one] | – | – | pIC50 [2]: 7.62
10 | CCN1CCn2nc(Nc3cc(-c4cc(F)cc(N5CCn6c(cc7c6CC(C)(C)C7)C5=O)c4CO)cn(C)c3=O)cc2C1 [Example 285, 10-{3-[5-({5-Ethyl-4H,5H,6H,7H-pyrazolo[1,5-a]pyrazin-2-yl}amino)-1-methyl-6-oxo-1,6-dihydropyridin-3-yl]-5-fluoro-2-(hydroxymethyl)phenyl}-4,4-dimethyl-1,10-diazatricyclo[6.4.0.0^2,6]dodeca-2(6),7-dien-9-one] | 7.96 | – | pIC50 (Btk; Table 2): 8.44
11 | Cn1cc(-c2cc(F)cc(N3CCn4c(cc5c4CC(C)(C)C5)C3=O)c2CO)cc(Nc2ccc(N3CCN(CCF)CC3)cn2)c1=O [Example 273, 10-{5-Fluoro-3-[5-({5-[4-(2-fluoroethyl)piperazin-1-yl]pyridine-2-yl}amino)-1-methyl-6-oxo-1,6-dihydropyridin-3-yl]-2-(hydroxymethyl)phenyl}-4,4-dimethyl-1,10-diazatricyclo[6.4.0.0^2,6]dodeca-2(6),7-dien-9-one] | 8.52 | – | pIC50 (Btk; Table 2): 8.20
12 | CN(Cc1cc(Nc2cc(-c3cc(F)cc(N4CCc5c(sc6c5CCCC6)C4=O)c3CO)cn(C)c2=O)nn1C)C1COC1 [Example 324, 5-[5-Fluoro-2-(hydroxymethyl)-3-{1-methyl-5-[(1-methyl-5-{[methyl(oxetan-3-yl)amino]methyl}-1H-pyrazol-3-yl)amino]-6-oxo-1,6-dihydropyridin-3-yl}phenyl]-8-thia-5-azatricyclo[7.4.0.0^2,7]trideca-1(9),2(7)-dien-6-one] | – | – | pIC50 [2]: 7.28
13 | CC(C)N1CCN(c2ccc(Nc3cc(-c4cc(F)cc(N5CCc6c(sc7c6CC(C)(C)C7)C5=O)c4CO)cn(C)c3=O)nc2)CC1 [Example 239] | – | 191 to 192 °C | –
14 | CN1CCN(c2ccc(Nc3cc(-c4cccc(N5CCc6c(cc7n6CCCC7)C5=O)c4CO)cn(C)c3=O)nc2)CC1 [Example 275, 2-(2-(Hydroxymethyl)-3-(1-methyl-5-(5-(4-methylpiperazin-1-yl)pyridin-2-ylamino)-6-oxo-1,6-dihydropyridin-3-yl)phenyl)-3,4,6,7,8,9-hexahydropyrido[3,4-b]indolizin-1(2H)-one] | – | 180 to 181 °C | pIC50 (Btk; Table 2): 7.79
15 | Cn1cc(-c2cc(F)cc(N3CCc4c(sc5c4CC(C)(C)C5)C3=O)c2CO)cc(Nc2ccc(N3CCN(C4COC4)CC3)cn2)c1=O [Example 237] | – | 175 to 177 °C | –
16 | Cn1cc(-c2cccc(N3CCn4c(cc5c4CCCC5)C3=O)c2CO)cc(Nc2cc3n(n2)CCOC3)c1=O [Example 110, 2-(3-(5-(6,7-dihydro-4H-pyrazolo[5,1-c][1,4]oxazin-2-ylamino)-1-methyl-6-oxo-1,6-dihydropyridin-3-yl)-2-(hydroxymethyl)phenyl)-3,4,6,7,8,9-hexahydropyrazino[1,2-a]indol-1(2H)-one] | 7.66 | – | pIC50 (Btk; Table 1): 8.11
17 | Cn1cc(-c2cc(F)cc(N3CCc4c(sc5c4CC(C)(C)C5)C3=O)c2CO)cc(Nc2cc3n(n2)CCN(C2COC2)C3)c1=O [Example 318, 10-[5-Fluoro-2-(hydroxymethyl)-3-(1-methyl-5-{[5-(oxetan-3-yl)-4H,5H,6H,7H-pyrazolo[1,5-a]pyrazin-2-yl]amino}-6-oxo-1,6-dihydropyridin-3-yl)phenyl]-4,4-dimethyl-7-thia-10-azatricyclo[6.4.0.0^2,6]dodeca-1(8),2(6)-dien-9-one] | 7.74 | – | –
18 | Cn1cc(-c2cc(F)cc(N3CCc4c(sc5c4CCCC5)C3=O)c2CO)cc(Nc2ccc(N3CCOCC3)cn2)c1=O [Example 289, 2-(5-Fluoro-2-(hydroxymethyl)-3-(1-methyl-5-(5-morpholinopyridin-2-ylamino)-6-oxo-1,6-dihydropyridin-3-yl)phenyl)-3,4,5,6,7,8-hexahydrobenzothieno[2,3-c]pyridin-1(2H)-one] | 8.00 | – | –
19 | CCN1CCc2nc(Nc3cc(-c4cc(F)cc(N5CCn6c(cc7c6CC(C)(C)C7)C5=O)c4CO)cn(C)c3=O)ccc2C1 [Example 284, 10-(3-{5-[(6-Ethyl-5,6,7,8-tetrahydro-1,6-naphthyridin-2-yl)amino]-1-methyl-6-oxo-1,6-dihydropyridin-3-yl}-5-fluoro-2-(hydroxymethyl)phenyl)-4,4-dimethyl-1,10-diazatricyclo[6.4.0.0^2,6]dodeca-2(6),7-dien-9-one] | 8.22 | – | pIC50 (Btk; Table 2): 8.55
20 | Cn1cc(-c2cccc(N3CCn4c(cc5c4CCCC5)C3=O)c2CO)nc(Nc2cnn(C3CC3)c2)c1=O [Example 114, 2-(3-(6-(1-cyclopropyl-1H-pyrazol-4-ylamino)-4-methyl-5-oxo-4,5-dihydropyrazin-2-yl)-2-(hydroxymethyl)phenyl)-3,4,6,7,8,9-hexahydropyrazino[1,2-a]indol-1(2H)-one] | 6.73 | – | –
21 | COCc1c(-c2cc(Nc3ccc(N4CCN(C)CC4)cn3)c(=O)n(C)c2)cc(F)cc1N1CCn2c(cc3c2CCCC3)C1=O [Example 343, 2-{5-fluoro-2-(methoxymethyl)-3-(1-methyl-5-(5-(4-methylpiperazin-1-yl)pyridin-2-ylamino)-6-oxo-1,6-dihydropyridin-3-yl)phenyl)-3,4,6,7,8,9-hexahydropyrazino[1,2-a]indol-1(2H)-one] | – | – | pIC50 [2]: 7.28
22 | Cn1cc(-c2cc(F)cc(N3CCn4c(cc5c4CCCC5)C3=O)c2CO)cc(Nc2ccc(N3CCN(C4COC4)CC3)cn2)c1=O [Example 210, 2-(5-fluoro-2-(hydroxymethyl)-3-(1-methyl-5-(5-(4-(oxetan-3-yl)piperazin-1-yl)pyridin-2-ylamino)-6-oxo-1,6-dihydropyridin-3-yl)phenyl)-3,4,6,7,8,9-hexahydropyrazino[1,2-a]indol-1(2H)-one] | 8.00 | – | –
23 | Cc1cc(Nc2cc(-c3cccc(N4CCc5c(cc6n5CCCC6)C4=O)c3CO)cn(C)c2=O)n[nH]1 [Example 225, 2-(2-(Hydroxymethyl)-3-(1-methyl-5-(5-methyl-1H-pyrazol-3-ylamino)-6-oxo-1,6-dihydropyridin-3-yl)phenyl)-3,4,6,7,8,9-hexahydropyrido[3,4-b]indolizin-1(2H)-one] | – | 199 to 200 °C | –
24 | CN(C)CCN(C)c1ccc(Nc2cc(-c3cc(F)cc(N4CCc5c(sc6c5CCCC6)C4=O)c3CO)cn(C)c2=O)nc1 [Example 286, 2-(3-(5-(5-((2-(Dimethylamino)ethyl)(methyl)amino)pyridin-2-ylamino)-1-methyl-6-oxo-1,6-dihydropyridin-3-yl)-5-fluoro-2-(hydroxymethyl)phenyl)-3,4,5,6,7,8-hexahydrobenzothieno[2,3-c]pyridin-1(2H)-one] | 8.40 | 122 to 123 °C | –
25 | CN(C)CCOc1ccc(Nc2cc(-c3cc(F)cc(N4CCc5c(sc6c5CC(C)(C)C6)C4=O)c3CO)cn(C)c2=O)nc1 [Example 296, 10-{3-[5-({5-[2-(Dimethylamino)ethoxy]pyridin-2-yl}amino)-1-methyl-6-oxo-1,6-dihydropyridin-3-yl]-5-fluoro-2-(hydroxymethyl)phenyl}-4,4-dimethyl-7-thia-10-azatricyclo[6.4.0.0^2,6]dodeca-1(8),2(6)-dien-9-one] | 9.00 | – | –
